Experimental findings from patent US20210253747A1, “COMPOSITIONS OF SOLUBLE BETA GLUCAN AND RELATED METHODS” (KEMIN INDUSTRIES, INC., priority 2020, published 2021) are described below.

Details of the data set: Initial absorbance (@600 nm): dose or concentration left out as unconfirmed. From the text:
The final criteria for the claimed composition is the ability for the dry product to redissolve into a soluble/colloidal water-based solution at an example concentration of 10 g/L. Before redissolving in water, the dry product is ground into a powder using any mechanical grinding/milling/pulverizing methods, in this case a mortar and pestle.

With paramylon [Sample A], the “Absorbance at 60 min/Initial absorbance” value is reported as 0.535, the “Initial absorbance (@600 nm)” value is 1.950 and the “Solubility as defined by the absorbance method (soluble if the decrease is not more than 25% after 60 minutes)” value is recorded as “NOT SOLUBLE”.
